Test results reported in ChEMBL document CHEMBL1201862, “PubChem BioAssay data set” (2004).
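Briefly, cells in 96-well plates were exposed to five compound concentrations for 48 h, and endpoints were estimated by linear interpolation. At the GI50, growth is halved.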 The source made the active and inactive calls. Cut-off read from the data, not from the text of the source: active = GI50 up to about 1.1 µM and inactive = higher.

Columns and labels:
Experiment in all cases: growth of human tumour cells (NCI), 48 h
CCRF-CEM = tested on: CCRF-CEM
OVCAR-3 = tested on: OVCAR-3
COLO 205 = tested on: COLO 205
SNB-75 = tested on: SNB-75
UACC-62 = tested on: UACC-62
DMS-273 = tested on: DMS-273
HCT-116 = tested on: HCT-116
OVCAR-5 = tested on: OVCAR-5
NCI-H23 = tested on: NCI-H23
TK-10 = tested on: TK-10
SK-MEL-28 = tested on: SK-MEL-28
SK-MEL-5 = tested on: SK-MEL-5
HL-60 = tested on: HL-60
NCI-H226 = tested on: NCI-H226
KM12 = tested on: KM12
SNB-19 = tested on: SNB-19
HT-29 = tested on: HT-29
UACC-257 = tested on: UACC-257
SW-620 = tested on: SW-620
HOP-18 = tested on: HOP-18

Measured: GI50

CCN(CC)CCC(=O)c1ccccc1
inactive: CCRF-CEM 6.21 µM | OVCAR-3 18.6 µM | COLO 205 > 10 µM | SNB-75 12.5 µM | UACC-62 > 10 µM | DMS-273 18.5 µM | HCT-116 17.3 µM | OVCAR-5 21.5 µM | NCI-H23 19.1 µM | TK-10 21.3 µM | SK-MEL-28 16.9 µM | SK-MEL-5 91 µM | HL-60 12.6 µM | NCI-H226 > 100 µM | KM12 43.4 µM | SNB-19 > 100 µM | HT-29 28.2 µM | UACC-257 24.2 µM | SW-620 19.6 µM | HOP-18 15.3 µM

OC12c3ccccc3C1CCCCCCCCCC21OCCCO1 (stereo not given)
inactive: CCRF-CEM > 100 µM | OVCAR-3 > 100 µM | COLO 205 > 100 µM | SNB-75 > 100 µM | UACC-62 > 100 µM | DMS-273 > 100 µM | HCT-116 4.06 µM | OVCAR-5 > 100 µM | NCI-H23 > 100 µM | TK-10 > 100 µM | SK-MEL-28 > 100 µM | SK-MEL-5 > 100 µM | HL-60 4.15 µM | NCI-H226 > 100 µM | KM12 > 100 µM | SNB-19 > 100 µM | HT-29 > 100 µM | UACC-257 > 100 µM | SW-620 > 100 µM | HOP-18 > 100 µM
